Test results: PMC8205226, “HIV-1 Integrase Inhibitors with Modifications That Affect Their Potencies against Drug Resistant Integrase Mutants” (ACS Infectious Diseases, 2021)
Like-named read-outs stand apart in the source and are kept apart here.

Columns and labels:
Assay type in all cases: cell-based
HIV-1 IN mutant P142H = assay: single-round infectivity assay, P142H IN mutant
Procedure: (§1) The EC50 values were determined using a vector that carries the IN mutant in a single round infection assay. […] Error bars represent the standard deviations of independent experiments, n = 4, performed in triplicate.
Single round infectivity measurements were determined as done previously.[38]
(§2) The vector pNLNgoMIVR-ΔENV.LUC has been described previously.[26] To produce the new IN mutants used in this study, the IN open reading frame was removed from pNLNgoMIVR-ΔENV.LUC by digestion with KpnI and SalI, and the resulting fragment was inserted between the KpnI and SalI sites of pBluescript KS+. Using that construct as the wild-type template, we prepared the following HIV-1 IN mutants using the QuikChange II XL site directed mutagenesis kit (Agilent Technologies, Santa Clara, CA) protocol: N117A, N117H, P142A, P142H, P142S, Y143C, Y143H, S230R, R231G, and R231K. The following sense oligonucleotides were used with matching cognate antisense oligonucleotides (not shown) (Integrated DNA Technologies, Coralville, IA) in the mutagenesis: N117A, 5′-[…]-3′; N117H, 5′-[…]-3′; P142A, 5′-[…]-3′; P142H, 5′-[…]-3′; P142S, 5′-[…]-3′; Y143C, 5′- […]-3′; Y143H, 5′-[…]-3′; S230R, 5′- […]-3′; R231G, 5′-[…]-3′; R231K, 5′-[…]-3′.

HIV-1 IN mutant R231K = assay: single-round infectivity assay, R231K IN mutant
Procedure: as §1, with “Figure 5 Antiviral potencies of the new compounds against IN with mutations in the […]. The” for “The”
(§3) WT and mutant HIV-1 viral vectors were used in single-round infectivity assays to determine the antiviral potencies (EC50 values) of the compounds and the effects of the mutants on the EC50 values as previously described.[30],[54] Single round infectivity measurements were determined as done previously.[38]
as §2

WT HIV-1 = assay: single-round infectivity assay, WT HIV-1 IN vector; settings: new compounds
Procedure: (§4) Figure 2 Antiviral activities of the new compounds against RAL-resistant mutants. The EC50 values were determined using a vector that carries WT HIV-1 IN and the RAL-resistant mutants in a single round infection assay. […] Error bars represent the standard deviations of independent experiments, n = 4, performed in triplicate. The graph has a maximum value of 550 nM.
as §3, §2

HIV-1 IN mutant N117A = assay: single-round infectivity assay, N117A IN mutant
Procedure: as §1, §3, §2

[1] = tested on: HIV-1 IN double mutant G140S/Q148H; assay: single-round infectivity assay, G140S/Q148H IN double mutant
Procedure: as §4, §3, §2

HIV-1 IN mutant P142A = assay: single-round infectivity assay, P142A IN mutant
Procedure: as §1, with “Figure 4 Mutations in the β5-α3 loop affect the antiviral potencies of the new compounds. The” for “The”
as §3, §2

HIV-1 IN mutant P142S = assay: single-round infectivity assay, P142S IN mutant
Procedure: as §1, with “Figure 4 Mutations in the β5-α3 loop affect the antiviral potencies of the new compounds. The” for “The”
as §3, §2

HIV-1 IN mutant N117H = assay: single-round infectivity assay, N117H IN mutant
Procedure: as §1, §3, §2

HIV-1 IN mutant G118R = assay: single-round infectivity assay, G118R IN mutant
Procedure: as §1, §3, §2

HIV-1 IN mutant S119R = assay: single-round infectivity assay, S119R IN mutant
Procedure: as §1, §3, §2

HIV-1 IN mutant S230R = assay: single-round infectivity assay, S230R IN mutant
Procedure: as §1, with “Figure 5 Antiviral potencies of the new compounds against IN with mutations in the […]. The” for “The”
as §3, §2

HIV-1 IN mutant N155H = assay: single-round infectivity assay, N155H IN mutant
Procedure: as §4, §3, §2

HIV-1 IN mutant Y143H = assay: single-round infectivity assay, Y143H IN mutant
Procedure: as §1, with “Figure 4 Mutations in the β5-α3 loop affect the antiviral potencies of the new compounds. The” for “The”
as §3, §2

HIV-1 IN mutant Y143R = assay: single-round infectivity assay, Y143R IN mutant
Procedure: as §4, §3, §2

HIV-1 IN mutant R231G = assay: single-round infectivity assay, R231G IN mutant
Procedure: as §1, with “Figure 5 Antiviral potencies of the new compounds against IN with mutations in the […]. The” for “The”
as §3, §2

HIV-1 IN mutant Y143C = assay: single-round infectivity assay, Y143C IN mutant
Procedure: as §1, with “Figure 4 Mutations in the β5-α3 loop affect the antiviral potencies of the new compounds. The” for “The”
as §3, §2

[2] = fold change in EC50, IN mutant versus WT HIV-1

Nc1c(C(=O)NCc2ccc(F)cc2F)c(=O)n(O)c2ncc(CCS(=O)(=O)CCN3CCOCC3)cc12 [6v, 4-Amino-N-(2,4-difluorobenzyl)-1-hydroxy-6-(2-((2-morpholinoethyl)sulfonyl)ethyl)-2-oxo-1,2-dihydro-1,8-naphthyridine-3-carboxamide]
ratio of the EC50s (our compound relative to DTG) against P142H (HIV-1 IN mutant P142H; EC50 compound / EC50 DTG): 159.9
EC50 (HIV-1 IN mutant P142H; Human immunodeficiency virus 1, read-out: EC50 values P142H): 448 ± 35.8 nM
ratio of the EC50s (our compound relative to DTG) against R231K (HIV-1 IN mutant R231K; EC50 compound / EC50 DTG): 97.9
EC50 (HIV-1 IN mutant R231K; Human immunodeficiency virus 1, read-out: EC50 values R231K, single round infection, n = 4): 411 ± 58 nM
FC R231K (HIV-1 IN mutant R231K; [2]): 1.5
EC50 (WT HIV-1; Human immunodeficiency virus 1, read-out: EC50 values WT, vector carrying WT HIV-1 IN, single round infection, n = 4): 268 ± 68.8 nM
EC50 (WT HIV-1; read-out: EC50 values WT, vector carrying WT HIV-1 IN, single round infection, n = 4): > 250 nM
ratio of the EC50s (our compound relative to DTG) against N117A (HIV-1 IN mutant N117A; EC50 compound / EC50 DTG): 319.0
EC50 (HIV-1 IN mutant N117A; Human immunodeficiency virus 1, read-out: EC50 values N117A): 160 nM
FC N117A (HIV-1 IN mutant N117A; [2]): 0.6
ratio of the EC50s (our compound relative to DTG) against G140S/Q148H ([1]; EC50 compound / EC50 DTG): 71.1
EC50 ([1]; Human immunodeficiency virus 1, read-out: EC50 values G140S/Q148H): 412 ± 120 nM
FC G140S/Q148H [1, 2]: 1.5
ratio of the EC50s (our compound relative to DTG) against P142A (HIV-1 IN mutant P142A; EC50 compound / EC50 DTG): 145.9
EC50 (HIV-1 IN mutant P142A; Human immunodeficiency virus 1, read-out: EC50 values P142A): 365 ± 39.4 nM
ratio of the EC50s (our compound relative to DTG) against P142S (HIV-1 IN mutant P142S; EC50 compound / EC50 DTG): 156.4
EC50 (HIV-1 IN mutant P142S; Human immunodeficiency virus 1, read-out: EC50 values P142S): 344 ± 26.9 nM
ratio of the EC50s (our compound relative to DTG) against N117H (HIV-1 IN mutant N117H; EC50 compound / EC50 DTG): 207.3
EC50 (HIV-1 IN mutant N117H; Human immunodeficiency virus 1, read-out: EC50 values N117H): 497 nM
FC N117H (HIV-1 IN mutant N117H; [2]): 1.9
ratio of the EC50s (our compound relative to DTG) against G118R (HIV-1 IN mutant G118R; EC50 compound / EC50 DTG): 88.3
EC50 (HIV-1 IN mutant G118R; Human immunodeficiency virus 1, read-out: EC50 values G118R): 1150 ± 270 nM
FC G118R (HIV-1 IN mutant G118R; [2]): 4.3
ratio of the EC50s (our compound relative to DTG) against S119R (HIV-1 IN mutant S119R; EC50 compound / EC50 DTG): 213.0
EC50 (HIV-1 IN mutant S119R; Human immunodeficiency virus 1, read-out: EC50 values S119R): 490 ± 43.1 nM
FC S119R (HIV-1 IN mutant S119R; [2]): 1.8
ratio of the EC50s (our compound relative to DTG) against S230R (HIV-1 IN mutant S230R; EC50 compound / EC50 DTG): 134.0
EC50 (HIV-1 IN mutant S230R; Human immunodeficiency virus 1, read-out: EC50 values S230R): 616 ± 79.8 nM
FC S230R (HIV-1 IN mutant S230R; [2]): 2.3
ratio of the EC50s (our compound relative to DTG) against N155H (HIV-1 IN mutant N155H; EC50 compound / EC50 DTG): 38.8
EC50 (HIV-1 IN mutant N155H; Human immunodeficiency virus 1, read-out: EC50 values N155H): 140 ± 4.9 nM
FC N155H (HIV-1 IN mutant N155H; [2]): 0.5
ratio of the EC50s (our compound relative to DTG) against Y143H (HIV-1 IN mutant Y143H; EC50 compound / EC50 DTG): 172.0
EC50 (HIV-1 IN mutant Y143H; Human immunodeficiency virus 1, read-out: EC50 values Y143H, single round infection, n = 4): 378 ± 38.9 nM
FC Y143H (HIV-1 IN mutant Y143H; [2]): 1.4
ratio of the EC50s (our compound relative to DTG) against Y143R (HIV-1 IN mutant Y143R; EC50 compound / EC50 DTG): 25.3
EC50 (HIV-1 IN mutant Y143R; Human immunodeficiency virus 1, read-out: EC50 values Y143R): 109 ± 16.2 nM
FC Y143R (HIV-1 IN mutant Y143R; [2]): 0.4
ratio of the EC50s (our compound relative to DTG) against R231G (HIV-1 IN mutant R231G; EC50 compound / EC50 DTG): 133.8
EC50 (HIV-1 IN mutant R231G; Human immunodeficiency virus 1, read-out: EC50 values R231G): 187 ± 17 nM
FC R231G (HIV-1 IN mutant R231G; [2]): 0.7
ratio of the EC50s (our compound relative to DTG) against Y143C (HIV-1 IN mutant Y143C; EC50 compound / EC50 DTG): 308.4
EC50 (HIV-1 IN mutant Y143C; Human immunodeficiency virus 1, read-out: EC50 values Y143C, single round infection, n = 4): 432 ± 75.3 nM
FC Y143C (HIV-1 IN mutant Y143C; [2]): 1.6
